Patent publication US8350079B2, “Treprostinil formulation” (United Therapeutics Corporation, priority 2008, dated 2013)

Assay: Extended room temperature storage of treprostinil monohydrate lot D-1007-089 (18-month stability summary: water content, assay/impurity profile)
Assay type: physicochemical
Conditions: for TREPROSTINIL Assay: in % (unit assumed)
Procedure: 2. UT Stability Summary (18-month) for monohydrate lot # D-1007-089
A 3.4-kg sample of treprostinil diethanolamine salt was dissolved in 36 L of sterile water, 60 L of ethyl acetate and 3.6 L of 3 M HCl were added and the mixture stirred. The layers were separated and the aqueous layer was extracted thrice with 20-L portions of ethyl acetate. The four organic layers were combined, the organic solution washed twice with 20-L portions of sterile water, once with 20 L of brine and dried over 2.86 kg of anhydrous sodium sulfate. The mixture was filtered and the filtrate was concentrated to yield treprostinil as a gummy solid. This solid was transferred to glass drying trays and let air-dry for 66 hours. This solid was then dissolved in 23.8 kg of ethanol, warmed to 48° C. and treated with 23.8 kg of warm (40-50° C.) sterile water. The solution was stirred and then stirring was stopped to allow the treprostinil to slowly crystallize. The resulting white solid was collected by filtration in an Aurora filter, washed with 45 L of a cold (6° C.) 20% ethanol in sterile water solution, the filter moved to a Hepa-filtered Finishing Room and the solid dried under house vacuum for 23 hours. The solid was transferred to glass drying trays and further air-dried for 115 hours until the total weight of the material was constant (no further solvent loss). A sample of this treprostinil monohydrate was taken as Lot #D-1007-089 for stability studies. The remaining material was further dried in a vacuum oven at 55° C. and 1.66 Torr for 10 hours to give 2.68 kg (96.4%) of anhydrous treprostinil (Lot #01G07018).
One of the stability studies has followed the monohydrate of TREPROSTINIL stored in an open container.

[1] = 1 Month, Container 1 (closed), room temperature
[2] = 1 Month, Container 2 (covered with Kimwipe), room temperature
[3] = 2 Months, Container 1 (closed), room temperature
[4] = 2 Months, Container 2 (covered with Kimwipe), room temperature
[5] = 3 Months, Container 1 (closed), room temperature
[6] = 3 Months, Container 2 (covered with Kimwipe), room temperature
[7] = 6 Months, Container 1 (closed), room temperature
[8] = 6 Months, Container 2 (covered with Kimwipe), room temperature
[9] = 12 Months, Container 1 (closed), room temperature
[10] = 12 Months, Container 2 (covered with Kimwipe), room temperature
[11] = 18 Month, Container 1 (closed), room temperature
[12] = 18 Month, Container 2 (covered with Kimwipe), room temperature
[13] = Initial, Container 1 (closed), room temperature
[14] = Initial, Container 2 (covered with Kimwipe), room temperature

CCCCC[C@H](O)CC[C@@H]1[C@H]2Cc3cccc(OCC(=O)O)c3C[C@H]2C[C@H]1O [TREPROSTINIL Lot# D-1007-089, treprostinil monohydrate]
750W93 [1]: 0.09% | 751W93 [1]: 0.04% | Impurity 1 [1]: 0.05 | Impurity 2 [1]: 0.05 | TREPROSTINIL Ethyl Ester [1]: 0.2% | Total impurities [1]: 0.5% | TREPROSTINIL Assay [1]: 100.1 | 750W93 [2]: 0.09% | 751W93 [2]: 0.04% | Impurity 1 [2]: 0.05 | Impurity 2 [2]: 0.05 | TREPROSTINIL Ethyl Ester [2]: 0.2% | Total impurities [2]: 0.5% | TREPROSTINIL Assay [2]: 100.4 | 750W93 [3]: 0.09% | 751W93 [3]: 0.04% | Impurity 1 [3]: 0.05 | Impurity 2 [3]: 0.05 | TREPROSTINIL Ethyl Ester [3]: 0.2% | Total impurities [3]: 0.5% | Water, KF [3]: 4.46% | TREPROSTINIL Assay [3]: 99.5 | 750W93 [4]: 0.09% | 751W93 [4]: 0.04% | Impurity 1 [4]: 0.05 | Impurity 2 [4]: 0.05 | TREPROSTINIL Ethyl Ester [4]: 0.2% | Total impurities [4]: 0.5% | Water, KF [4]: 4.47% | TREPROSTINIL Assay [4]: 99.6 | 750W93 [5]: 0.09% | 751W93 [5]: 0.04% | Impurity 1 [5]: 0.06 | Impurity 2 [5]: <0.05 | TREPROSTINIL Ethyl Ester [5]: 0.2% | Total impurities [5]: 0.5% | Water, KF [5]: 4.51% | TREPROSTINIL Assay [5]: 98.1 | 750W93 [6]: 0.09% | 751W93 [6]: 0.04% | Impurity 1 [6]: 0.06 | Impurity 2 [6]: <0.05 | TREPROSTINIL Ethyl Ester [6]: 0.2% | Total impurities [6]: 0.5% | Water, KF [6]: 4.48% | TREPROSTINIL Assay [6]: 98.6 | 750W93 [7]: 0.1% | 751W93 [7]: 0.04% | Impurity 1 [7]: <0.05 | Impurity 2 [7]: <0.05 | TREPROSTINIL Ethyl Ester [7]: 0.2% | Total impurities [7]: 0.6% | Water, KF [7]: 4.59% | TREPROSTINIL Assay [7]: 99.4 | 750W93 [8]: 0.09% | 751W93 [8]: 0.04% | Impurity 1 [8]: <0.05 | Impurity 2 [8]: <0.05 | TREPROSTINIL Ethyl Ester [8]: 0.2% | Total impurities [8]: 0.6% | Water, KF [8]: 4.72% | TREPROSTINIL Assay [8]: 99.3 | 750W93 [9]: 0.09% | 751W93 [9]: < 0.05% | Impurity 1 [9]: 0.06 | Impurity 2 [9]: 0.05 | TREPROSTINIL Ethyl Ester [9]: 0.2% | Total impurities [9]: 0.5% | Water, KF [9]: 4.72% | TREPROSTINIL Assay [9]: 100.1 | 750W93 [10]: 0.09% | 751W93 [10]: < 0.05% | Impurity 1 [10]: 0.06 | Impurity 2 [10]: 0.05 | TREPROSTINIL Ethyl Ester [10]: 0.2% | Total impurities [10]: 0.05% | Water, KF [10]: 4.73% | TREPROSTINIL Assay [10]: 100.3 | 750W93 [11]: 0.09% | 751W93 [11]: < 0.05% | Impurity 1 [11]: <0.05 | Impurity 2 [11]: 0.05 | TREPROSTINIL Ethyl Ester [11]: 0.2% | Total impurities [11]: 0.05% | Water, KF [11]: 4.67% | TREPROSTINIL Assay [11]: 100.3 | 750W93 [12]: 0.09% | 751W93 [12]: < 0.05% | Impurity 1 [12]: <0.05 | Impurity 2 [12]: 0.05 | TREPROSTINIL Ethyl Ester [12]: 0.2% | Total impurities [12]: 0.05% | Water, KF [12]: 4.72% | TREPROSTINIL Assay [12]: 99.8 | 750W93 [13]: 0.1% | 751W93 [13]: 0.04% | Impurity 1 [13]: 0.06 | Impurity 2 [13]: 0.05 | TREPROSTINIL Ethyl Ester [13]: 0.2% | Total impurities [13]: 0.5% | Water, KF [13]: 4.55% | TREPROSTINIL Assay [13]: 99.6 | 750W93 [14]: 0.1% | 751W93 [14]: 0.04% | Impurity 1 [14]: 0.05 | Impurity 2 [14]: <0.05 | TREPROSTINIL Ethyl Ester [14]: 0.2% | Total impurities [14]: 0.5% | Water, KF [14]: 4.37% | TREPROSTINIL Assay [14]: 99.5 | Retention of the one mole of water in the solid (open container, over 18-months): has not disappeared | Stability compared with the anhydrous form (room temperature, e.g. 25° C. / ambient temperatures): more stable than the anhydrous form
